# Structures can show the parent of a compound that is named as a salt.
# Tests used:
# [1] = target: T1, hiNOS (Homo sapiens, UniProt P35228); experiment: DAN assay, hiNOS expressed in transiently transfected HEK293 cells; assay type: cell-based; conditions: HEK293 cells transiently transfected with hiNOS
# T1 construct: expressed in transfected cells; host or cells: HEK293
# In short: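 Human iNOS, nNOS or eNOS transiently expressed in HEK293 cells, with nNOS and eNOS needing added cofactors for activity. NO production is read as nitrite by fluorometry: 2,3-diaminonaphthalene forms fluorescent […], detecting 10 nM to 10 μM nitrite.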
# [2] = test system: rat; experiment: Capsaicin test (topical capsaicin allodynia); assay type: in vivo
# Excerpt: Subcutaneous injection of dilute capsaicin into the rat hind paw produces transient but pronounced hyperalgesia, allodynia and pain. This effect may be mitigated by pretreatment with a suitable agent, such as a topical anaesthetic or analgesic, and the extent of this mitigation quantified by evaluation of pain-related behaviors in response to noxious or innocuous stimuli as described above; rats pretreated with a known analgesic display fewer pain and allodynia related behaviors than controls. Compounds may be evaluated for their efficacy as potential analgesics in this manner as well.
# Male Lewis rats weighing between 180 and 250 grams are used. The right hind paw is dipped into vehicle (100% acetone) or compound in vehicle for 30 seconds and then allowed to air-dry for 30 sec. To prevent the animal from licking the compound off the paw, the paw is wiped twice with a wet paper towel. At 15 min after application of vehicle or compound, 0.1 mg in 10 μL capsaicin is injected into right hind paw. Measurement of allodynia is performed 0.5 to 1 hour after capsaicin injection.
# One procedure for quantifying allodynia measures the rat behavioral response to presentation of von Frey filaments of increasing diameter. Each rat is placed in a small, clear cage on an elevated screen. Beginning with 4.31, the von Frey hair is presented perpendicularly to the right mid-plantar hind paw with sufficient force to cause slight buckling, for 6-8 seconds. If presentation lifts the hind paw it is disregarded, as it changes the nature of the stimulus. A positive response is noted if the paw is sharply withdrawn upon onset or offset of stimulus. Ambulation is considered an ambiguous response and the presentation is repeated. Stimuli are presented in a consecutive fashion. A positive response would call for the presentation of the immediately weaker weight filament next; likewise, no response would call for the immediately stronger. Presentations continue until a series of six consecutive responses from the first change is logged. The next rat is then tested. This procedure is standard in the art for the measurement of allodynia, but any other method known in the art which provides adequate sensitivity and reproducibility may be substituted.
# [3] = at 0.5 hr after capsaicin injection
# [4] = at 1 hr after capsaicin injection
Compound,EC50 [1] [nM],"Topical Capsaicin Allodynia [2, 3]","Topical Capsaicin Allodynia [2, 4]"
"CN(CCCNCc1ccccc1)c1nc(-n2ccnc2)ns1 [Example 12, N′-Benzyl-N-(3-imidazol-1-yl-[1,2,4]thiadiazol-5-yl)-N-methyl-propane-1,3-diamine]",> 50000,− at 0.5 hr ((−) = <15% inhibition),− at 1 hr ((−) = <15% inhibition)
"Cc1cc(CNC(=O)NCCc2ccc3c(c2)OCO3)nc(-n2ccnc2)n1 [Example 13, 1-(2-Benzo[1,3]dioxol-5-yl-ethyl)-3-(2-imidazol-1-yl-6-methyl-pyrimidin-4-ylmethyl)-urea]",< 1000,− at 0.5 hr ((−) = <15% inhibition),+ at 1 hr ((+) = >15% inhibition)
"O=C(NCCc1ccc2c(c1)OCO2)[C@H]1CCCN1c1nc(-n2ccnc2)ns1 [Example 29, (R)-1-(3-Imidazol-1-yl-[1,2,4]thiadiazol-5-yl)pyrrolidine-2-carboxylic acid (2-benzo[1,3]dioxol-5-yl-ethyl)-amide]",< 1000,− at 0.5 hr ((−) = <15% inhibition),+ at 1 hr ((+) = >15% inhibition)
"Cc1cc(C(C)NCCNCc2ccc3c(c2)OCO3)nc(-n2ccnc2)n1 (stereo not drawn) [Example 38, N-Benzo[1,3]dioxol-5-ylmethyl-N′-[1-(2-imidazol-1-yl-6-methyl-pyrimidin-4-yl)-ethyl]-ethane-1,2-diamine]",< 1000,+ at 0.5 hr ((+) = >15% inhibition),+ at 1 hr ((+) = >15% inhibition)
"c1csc(CN(CCCNCc2ccc3c(c2)OCO3)c2nc(-n3ccnc3)ns2)c1 [Example 50, N′-Benzo[1,3]dioxol-5-ylmethyl-N-(3-imidazol-1-yl-[1,2,4]thiadiazol-5-yl)-N-thiophen-2-ylmethyl-propane-1,3-diamine]",,+ at 0.5 hr ((+) = >15% inhibition),+ at 1 hr ((+) = >15% inhibition)
"Cc1cc(C2CCC(=O)N2CCNCc2ccc3c(c2)OCCO3)nc(-n2ccnc2)n1 (stereo not drawn) [Example 139, 1-{2-[(2,3-Dihydro-benzo[1,4]dioxin-6-ylmethyl)-amino]-ethyl}-5-(2-imidazol-1-yl-6-methyl-pyrimidin-4-yl)-pyrrolidin-2-one hydrochloride]",< 1000,,
"Cc1cc(C2C(c3nccs3)CCN2CCNCc2ccc3c(c2)OCO3)nc(-n2ccnc2)n1 (stereo not drawn) [Example 140, Benzo[1,3]dioxol-5-ylmethyl-{2-[2-(2-imidazol-1-yl-6-methyl-pyrimidin-4-yl)-3-thiazol-2-yl-pyrrolidin-1-yl]-ethyl}-amine]",< 1000,,
"CCOC(=O)c1csc(C2CCN(CCNCc3ccc4c(c3)OCO4)C2c2cc(C)nc(-n3ccnc3)n2)n1 (stereo not drawn) [Example 141, 2-[1-{2-[(Benzo[1,3]dioxol-5-ylmethyl)-amino]-ethyl}-2-(2-imidazol-1-yl-6-methyl-pyrimidin-4-yl)-pyrrolidin-3-yl]-thiazole-4-carboxylic acid ethyl ester]",< 1000,,
"Cc1cc(C(C)(C)CNC(=O)NCc2ccc3c(c2)OCO3)nc(-n2ccnc2)n1 [Example 144, 1-Benzo[1,3]dioxol-5-ylmethyl-3-[2-(2-imidazol-1-yl-6-methyl-pyrimidin-4-yl)-2-methyl-propyl]-urea]",< 1000,,
"CN(CCCNCc1ccc2c(c1)OCO2)c1nc(-n2cncn2)ns1 [Example 145, N′-Benzo[1,3]dioxol-5-ylmethyl-N-methyl-N-(3-[1,2,4]triazol-1-yl-[1,2,4]thiadiazol-5-yl)-propane-1,3-diamine]",> 50000,,

# The next lines start with results.
EC50 [1] [nM],Compound,"Topical Capsaicin Allodynia [2, 3]","Topical Capsaicin Allodynia [2, 4]"
< 1000,"O=C(NCCc1ccc2c(c1)OCO2)[C@H]1C[C@@H](O)CN1c1nc(-n2ccnc2)ns1 [Example 28, (2R,4R)-4-Hydroxy-1-(3-imidazol-1-yl-[1,2,4]thiadiazol-5-yl)-pyrrolidine-2-carboxylic acid (2-benzo[1,3]dioxol-5-yl-ethyl)-amide]",+ at 0.5 hr ((+) = >15% inhibition),+ at 1 hr ((+) = >15% inhibition)
< 1000,"c1cn(-c2nsc(N(CCCNCc3ccc4c(c3)OCO4)Cc3nccs3)n2)cn1 [Example 49, N′-Benzo[1,3]dioxol-5-ylmethyl-N-(3-imidazol-1-yl-[1,2,4]thiadiazol-5-yl)-N-thiazol-2-ylmethyl-propane-1,3-diamine]",+ at 0.5 hr ((+) = >15% inhibition),+ at 1 hr ((+) = >15% inhibition)
< 1000,"CN(CCCN(CC(N)=O)c1nc(-n2ccnc2)ns1)Cc1ccc2c(c1)OCO2 [Example 59, 2-[[3-(Benzo[1,3]dioxol-5-ylmethyl-methyl-amino)-propyl]-(3-imidazol-1-yl-[1,2,4]thiadiazol-5-yl)-amino]-acetamide]",+ at 0.5 hr ((+) = >15% inhibition),+ at 1 hr ((+) = >15% inhibition)
< 1000,"Cc1cc(C2CCCCN2CCNCc2ccc3c(c2)OCO3)nc(-n2ccnc2)n1 (stereo not drawn) [Example 142, Benzo[1,3]dioxol-5-ylmethyl-{2-[2-(2-imidazol-1-yl-6-methyl-pyrimidin-4-yl)-piperidin-1-yl]-ethyl}-amine]",,
< 1000,"Cc1cc(C(C)(C)CNC(=O)CCc2ccc3c(c2)OCO3)nc(-n2ccnc2)n1 [Example 143, 3-Benzo[1,3]dioxol-5-yl-N-[2-(2-imidazol-1-yl-6-methyl-pyrimidin-4-yl)-2-methyl-propyl]-propionamide]",,

# From patent US7825256B2, “Inducible nitric oxide synthase dimerization inhibitors” (Kalypsys, Inc., priority 2004, dated 2010)
